According to ChEMBL document CHEMBL4842364 (J Med Chem, 2021):
pIC50: −log10 of the molar value.

Legend:
[1] = molecular target: T1, Mitogen-activated protein kinase kinase kinase 19 (Homo sapiens) (UniProt Q56UN5); test: Inhibition of YSK4 (unknown origin) at 1 uM relative to control
T1 sequence (whole entry): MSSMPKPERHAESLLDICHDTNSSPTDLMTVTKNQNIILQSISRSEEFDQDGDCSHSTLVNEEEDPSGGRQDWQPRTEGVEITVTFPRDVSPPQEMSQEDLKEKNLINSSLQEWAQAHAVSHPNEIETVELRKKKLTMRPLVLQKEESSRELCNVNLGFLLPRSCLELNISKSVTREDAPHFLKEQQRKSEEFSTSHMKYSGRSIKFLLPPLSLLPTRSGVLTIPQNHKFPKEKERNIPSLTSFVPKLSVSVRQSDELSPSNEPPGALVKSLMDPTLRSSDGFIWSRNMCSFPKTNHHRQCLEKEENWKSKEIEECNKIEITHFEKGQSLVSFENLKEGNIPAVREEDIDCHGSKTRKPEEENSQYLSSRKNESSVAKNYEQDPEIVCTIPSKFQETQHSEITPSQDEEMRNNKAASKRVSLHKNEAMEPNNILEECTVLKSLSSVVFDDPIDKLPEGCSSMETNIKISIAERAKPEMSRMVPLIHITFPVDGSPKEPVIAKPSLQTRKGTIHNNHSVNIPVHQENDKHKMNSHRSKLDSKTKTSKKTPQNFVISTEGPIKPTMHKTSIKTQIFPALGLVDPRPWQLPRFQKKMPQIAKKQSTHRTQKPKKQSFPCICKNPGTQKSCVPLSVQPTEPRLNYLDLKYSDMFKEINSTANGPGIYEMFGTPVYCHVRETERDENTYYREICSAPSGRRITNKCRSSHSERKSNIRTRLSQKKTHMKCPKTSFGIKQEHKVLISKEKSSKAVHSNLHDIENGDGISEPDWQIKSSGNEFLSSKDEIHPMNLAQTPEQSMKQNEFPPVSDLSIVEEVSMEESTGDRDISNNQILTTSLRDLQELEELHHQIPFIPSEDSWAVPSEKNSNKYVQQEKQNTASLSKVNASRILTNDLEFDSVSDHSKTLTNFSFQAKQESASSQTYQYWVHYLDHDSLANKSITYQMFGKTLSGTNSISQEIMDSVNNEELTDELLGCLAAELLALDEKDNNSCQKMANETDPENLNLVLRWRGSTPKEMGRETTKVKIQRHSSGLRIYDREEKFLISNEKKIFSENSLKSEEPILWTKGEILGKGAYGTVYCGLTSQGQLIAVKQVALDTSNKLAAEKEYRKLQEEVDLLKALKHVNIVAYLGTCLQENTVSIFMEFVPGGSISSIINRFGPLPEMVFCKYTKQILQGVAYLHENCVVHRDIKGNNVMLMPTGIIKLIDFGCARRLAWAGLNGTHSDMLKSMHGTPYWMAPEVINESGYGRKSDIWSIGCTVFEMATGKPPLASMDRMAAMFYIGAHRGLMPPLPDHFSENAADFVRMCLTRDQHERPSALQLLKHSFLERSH

Wee1-like protein kinase = Wee1-like protein kinase (Homo sapiens, UniProt P30291)
Wee1-like protein kinase, sequence (P30291 whole entry): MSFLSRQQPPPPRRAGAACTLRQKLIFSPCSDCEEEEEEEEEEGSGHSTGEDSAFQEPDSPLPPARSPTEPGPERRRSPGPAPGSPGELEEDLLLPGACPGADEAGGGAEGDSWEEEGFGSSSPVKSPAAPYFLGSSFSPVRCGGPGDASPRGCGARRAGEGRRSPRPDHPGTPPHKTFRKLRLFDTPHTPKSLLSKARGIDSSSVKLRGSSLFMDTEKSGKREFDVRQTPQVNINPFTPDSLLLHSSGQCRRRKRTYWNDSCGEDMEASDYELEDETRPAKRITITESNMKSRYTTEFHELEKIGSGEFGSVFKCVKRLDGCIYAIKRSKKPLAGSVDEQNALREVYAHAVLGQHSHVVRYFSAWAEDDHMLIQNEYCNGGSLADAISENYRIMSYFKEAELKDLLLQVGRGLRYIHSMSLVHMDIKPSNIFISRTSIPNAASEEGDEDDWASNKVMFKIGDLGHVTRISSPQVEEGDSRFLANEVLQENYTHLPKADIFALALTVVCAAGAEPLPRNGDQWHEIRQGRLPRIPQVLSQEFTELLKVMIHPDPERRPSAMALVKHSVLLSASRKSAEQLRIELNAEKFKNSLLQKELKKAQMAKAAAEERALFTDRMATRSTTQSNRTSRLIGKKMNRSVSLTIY
Description: Displacement of Alexa Fluor labelled kinase tracer178 from WEE1 (unknown origin) incubated for 60 mins by FRET assay

[2] = molecular target: Serine/threonine-protein kinase PLK3 (Homo sapiens, UniProt Q9H4B4); test: Inhibition of PLK3 (unknown origin) at 1 uM relative to control
Serine/threonine-protein kinase PLK3, sequence (Q9H4B4 whole entry, looked up): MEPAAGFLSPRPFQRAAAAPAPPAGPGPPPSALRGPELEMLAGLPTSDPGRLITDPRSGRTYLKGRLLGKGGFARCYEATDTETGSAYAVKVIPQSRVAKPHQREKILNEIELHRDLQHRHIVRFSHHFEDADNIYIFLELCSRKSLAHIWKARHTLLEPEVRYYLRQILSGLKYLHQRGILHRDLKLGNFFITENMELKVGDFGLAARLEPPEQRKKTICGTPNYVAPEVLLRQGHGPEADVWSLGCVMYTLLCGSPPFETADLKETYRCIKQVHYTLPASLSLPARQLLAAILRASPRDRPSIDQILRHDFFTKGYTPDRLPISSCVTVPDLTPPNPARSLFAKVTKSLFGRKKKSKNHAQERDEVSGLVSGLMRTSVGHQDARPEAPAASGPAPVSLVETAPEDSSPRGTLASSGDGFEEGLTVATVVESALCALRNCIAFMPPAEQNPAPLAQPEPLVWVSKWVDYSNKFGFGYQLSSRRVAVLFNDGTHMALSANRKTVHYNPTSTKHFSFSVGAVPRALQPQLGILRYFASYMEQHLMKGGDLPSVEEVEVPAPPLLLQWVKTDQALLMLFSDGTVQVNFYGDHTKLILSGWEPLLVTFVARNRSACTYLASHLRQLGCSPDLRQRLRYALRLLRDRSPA

[3] = molecular target: Serine/threonine-protein kinase PLK2 (Homo sapiens, UniProt Q9NYY3); test: Inhibition of PLK2 (unknown origin) at 1 uM relative to control
Serine/threonine-protein kinase PLK2, sequence (Q9NYY3 whole entry, looked up): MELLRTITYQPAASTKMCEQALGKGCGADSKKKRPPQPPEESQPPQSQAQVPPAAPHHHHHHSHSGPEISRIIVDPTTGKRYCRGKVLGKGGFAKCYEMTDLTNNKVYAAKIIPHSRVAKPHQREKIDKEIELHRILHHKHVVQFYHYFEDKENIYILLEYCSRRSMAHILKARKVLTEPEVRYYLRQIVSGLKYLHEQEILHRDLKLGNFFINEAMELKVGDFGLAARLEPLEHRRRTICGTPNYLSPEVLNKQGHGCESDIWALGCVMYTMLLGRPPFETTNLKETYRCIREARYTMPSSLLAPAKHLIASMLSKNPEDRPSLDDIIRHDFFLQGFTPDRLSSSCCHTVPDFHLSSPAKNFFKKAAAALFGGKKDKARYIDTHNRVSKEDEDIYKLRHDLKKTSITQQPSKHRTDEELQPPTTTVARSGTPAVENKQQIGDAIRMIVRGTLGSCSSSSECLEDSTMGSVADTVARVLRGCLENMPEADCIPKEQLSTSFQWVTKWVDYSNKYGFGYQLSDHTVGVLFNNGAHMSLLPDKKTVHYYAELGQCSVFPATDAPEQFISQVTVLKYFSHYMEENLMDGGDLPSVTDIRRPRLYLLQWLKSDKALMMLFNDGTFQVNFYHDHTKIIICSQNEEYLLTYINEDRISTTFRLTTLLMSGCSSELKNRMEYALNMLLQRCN

[4] = molecular target: T2, Cyclin-G-associated kinase (Homo sapiens) (UniProt O14976); test: Inhibition of GAK (unknown origin) at 1 uM relative to control
T2 sequence (whole entry): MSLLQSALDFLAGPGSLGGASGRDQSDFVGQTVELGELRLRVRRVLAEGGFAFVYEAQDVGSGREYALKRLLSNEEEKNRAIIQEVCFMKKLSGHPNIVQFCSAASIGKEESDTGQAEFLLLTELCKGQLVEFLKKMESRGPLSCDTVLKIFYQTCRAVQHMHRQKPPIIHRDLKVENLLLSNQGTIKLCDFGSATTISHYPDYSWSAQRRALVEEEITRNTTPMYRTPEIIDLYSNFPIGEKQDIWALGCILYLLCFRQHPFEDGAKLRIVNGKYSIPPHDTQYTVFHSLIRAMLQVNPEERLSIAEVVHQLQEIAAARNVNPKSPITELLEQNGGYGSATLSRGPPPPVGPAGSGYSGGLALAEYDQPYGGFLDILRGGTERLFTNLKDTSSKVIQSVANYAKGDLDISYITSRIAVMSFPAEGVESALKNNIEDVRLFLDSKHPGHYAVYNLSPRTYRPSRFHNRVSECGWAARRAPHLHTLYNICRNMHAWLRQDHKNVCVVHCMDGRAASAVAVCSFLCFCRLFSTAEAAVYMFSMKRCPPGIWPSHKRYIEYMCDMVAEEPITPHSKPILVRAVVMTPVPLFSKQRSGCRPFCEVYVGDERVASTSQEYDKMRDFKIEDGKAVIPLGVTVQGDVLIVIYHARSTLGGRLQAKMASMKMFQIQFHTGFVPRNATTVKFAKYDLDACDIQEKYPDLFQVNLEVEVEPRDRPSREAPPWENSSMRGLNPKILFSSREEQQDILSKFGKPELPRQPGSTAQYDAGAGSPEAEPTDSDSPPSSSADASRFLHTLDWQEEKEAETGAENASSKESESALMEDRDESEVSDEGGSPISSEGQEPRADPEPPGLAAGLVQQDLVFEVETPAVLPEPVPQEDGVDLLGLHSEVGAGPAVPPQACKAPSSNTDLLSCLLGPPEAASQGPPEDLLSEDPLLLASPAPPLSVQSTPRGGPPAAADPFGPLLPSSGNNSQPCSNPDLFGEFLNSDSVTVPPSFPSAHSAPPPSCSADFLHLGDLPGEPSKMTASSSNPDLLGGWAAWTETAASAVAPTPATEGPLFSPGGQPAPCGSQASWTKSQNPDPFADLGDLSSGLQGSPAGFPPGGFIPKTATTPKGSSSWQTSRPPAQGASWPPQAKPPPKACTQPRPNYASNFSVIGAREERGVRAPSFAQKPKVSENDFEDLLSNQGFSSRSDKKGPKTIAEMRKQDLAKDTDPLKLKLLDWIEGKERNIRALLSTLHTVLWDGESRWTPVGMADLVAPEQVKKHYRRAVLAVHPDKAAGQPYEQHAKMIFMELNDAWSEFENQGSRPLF

[5] = Intrinsic clearance in mouse microsomes; format: ADME, Microsome
NCI-H23 = test: Antiproliferative activity against human NCI-H23 cells assessed as reduction in cell viability after 4 days by CellTiter-Glo assay; settings: Homo sapiens, NCI-H23, 96 h
[6] = Intrinsic clearance in human microsomes; format: ADME, Microsome
[7] = molecular target: Epidermal growth factor receptor (Homo sapiens) (UniProt P00533); test: Inhibition of EGFR (unknown origin) at 1 uM relative to control
Epidermal growth factor receptor (Homo sapiens), sequence (P00533 whole entry): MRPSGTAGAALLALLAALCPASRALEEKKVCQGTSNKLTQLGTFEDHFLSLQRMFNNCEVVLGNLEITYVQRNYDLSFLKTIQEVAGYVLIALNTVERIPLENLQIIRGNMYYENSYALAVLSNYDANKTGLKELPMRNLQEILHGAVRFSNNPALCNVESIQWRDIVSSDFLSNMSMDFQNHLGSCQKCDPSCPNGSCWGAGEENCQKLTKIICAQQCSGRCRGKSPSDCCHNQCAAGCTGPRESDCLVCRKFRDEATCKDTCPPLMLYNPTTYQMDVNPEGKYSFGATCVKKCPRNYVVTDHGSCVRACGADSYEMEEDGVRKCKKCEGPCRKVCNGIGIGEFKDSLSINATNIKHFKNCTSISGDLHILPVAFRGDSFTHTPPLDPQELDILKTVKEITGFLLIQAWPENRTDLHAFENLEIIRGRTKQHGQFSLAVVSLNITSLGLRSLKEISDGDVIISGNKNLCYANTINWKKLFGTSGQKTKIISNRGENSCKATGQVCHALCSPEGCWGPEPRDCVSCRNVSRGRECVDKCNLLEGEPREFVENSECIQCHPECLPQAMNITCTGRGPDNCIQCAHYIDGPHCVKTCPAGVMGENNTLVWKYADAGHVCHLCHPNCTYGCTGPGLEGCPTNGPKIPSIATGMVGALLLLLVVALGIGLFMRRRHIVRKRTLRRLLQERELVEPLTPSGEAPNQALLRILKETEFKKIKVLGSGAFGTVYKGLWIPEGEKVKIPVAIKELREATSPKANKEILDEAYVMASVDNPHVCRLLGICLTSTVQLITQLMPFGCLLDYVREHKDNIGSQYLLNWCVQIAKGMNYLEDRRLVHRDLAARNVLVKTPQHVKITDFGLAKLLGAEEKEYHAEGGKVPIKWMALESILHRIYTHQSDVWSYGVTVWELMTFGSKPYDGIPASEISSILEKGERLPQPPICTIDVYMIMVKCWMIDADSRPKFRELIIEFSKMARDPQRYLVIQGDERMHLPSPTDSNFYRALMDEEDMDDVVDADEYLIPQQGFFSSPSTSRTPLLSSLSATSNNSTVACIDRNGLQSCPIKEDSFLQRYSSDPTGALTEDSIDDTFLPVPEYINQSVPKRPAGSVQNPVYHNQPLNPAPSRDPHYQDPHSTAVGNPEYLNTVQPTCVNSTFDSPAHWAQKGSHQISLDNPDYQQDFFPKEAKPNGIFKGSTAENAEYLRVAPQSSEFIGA

[8] = AUC(0 to 24 hrs) in rat at 60 mg/kg, po; format: ADME, organism-based; set-up: time < 24 hr, route oral, dose 60 mg/kg; settings: in vivo
[9] = Plasma protein binding in mouse; format: ADME, cell-free; settings: read-out: PPB (converted)
[10] = Plasma protein binding in human; format: ADME, cell-free; settings: read-out: PPB (converted)
[11] = AUC(0 to 24 hrs) in mouse at 60 mg/kg, po; format: ADME, organism-based; set-up: time < 24 hr, route oral, dose 60 mg/kg; settings: in vivo
[12] = Octanol/buffer distribution coefficient, logD of the compound at pH 7.4; format: physicochemical

C=CCn1c(=O)c2cnc(Nc3ccc(N4CCN(C)CC4)cc3)nc2n1-c1ccc2c(n1)[C@](C)(O)CC2
inhibition [1]: > 90% | pIC50 (Wee1-like protein kinase): 8.32 | inhibition [2]: 75% | inhibition [3]: > 90% | inhibition [4]: 75% | CLint scaled [5]: < 38 mL/min/kg | pIC50 (NCI-H23): 6.50 | CLint scaled [6]: 20 mL/min/kg | inhibition [7]: > 90% | AUC(0-t) at 24 h [8]: 35 µM·h | fraction unbound [9]: 0.27 | fraction unbound [10]: 0.47 | AUC(0-t) at 24 h [11]: 27 µM·h | logD [12]: 2
